Measurements taken from PMC7936271, “Discovery and characterization of bromodomain 2–specific inhibitors of BRDT” (Proceedings of the National Academy of Sciences of the …, 2021).
Values joined by “and” are separate entries in the source; they are usually repeats but may differ in a detail not shown here. Equal entries are not always repeated.

Experiments:
[1] = Metabolic stability assay in mouse liver microsomes; assay type: in vitro ADME; conditions: for half-life at 2 μM: read-out: t1/2, min MLM
Method: (§1) 2d) Metabolic stability assay in liver microsomes. […]
(§2) The reactions are terminated by adding equivalent
(§3) volume of ice-cold CH3OH and vortexed.
(§4) temperature was ma i ntained at 40 °C.
(§5) (acetonitrile containing 0.1% formic acid). […]

[2] = Metabolic stability assay in human liver microsomes; assay type: in vitro ADME; conditions: for half-life at 2 μM: read-out: t1/2, min HLM
Method: as §1, §2, §3, §4, §5

various bromodomains = assay: BROMOscan bromodomain profiling on various bromodomains; assay type: binding; conditions: result in words
Method: 2a) Bromodomain proximity assay. The AlphaScreenTM assay was performed following previous […]
The plate was read on a Tecan Infinite […]
the protein thermal shift assay.
Orange dye at 5 × in a 10- µL reaction.
Lightcycler 480 real-time PCR instrument.
2c) NanoBRET target engagement intracellular BET bromodomain assay. The NanoLuc -BRDT-BD1 […]
(Promega, USA) to replace the corresponding BRD4 bromodomain sequences. The NanoBRET tracer […]
The cells were then preincubated with tested
2d) Metabolic stability assay in liver microsomes. Compounds 3–10, 15, 17 and 20–2 2 (2.0 μM) were incubated in the mouse or human liver microsomes (0.5 mg protein/mL) at 37 °C. The samples are collected […]
The reactions are terminated by adding equivalent volume of ice-cold CH3OH and vortexed. […]
as §4
(acetonitrile containing 0.1% formic acid).
2e) BROMOscan bromodomain profiling. BROMOscan bromodomain profiling was provided by […]
against a proprietary reference immobilized ligand.

BRDT-BD2 [3] = biological target: BRDT-BD2
BRDT-BD1 [4] = biological target: T1, BRDT-BD1 (Homo sapiens, UniProt Q58F21); assay: AlphaScreen competition assay with biotinylated JQ1, BRDT-BD1; assay type: binding; conditions: AlphaScreen, biotinylated JQ1 as ligand; NE: no effect at 20 µM
T1 construct: NP_001717.3 amino acid 21− 137; made in house; host or cells: E. coli NiCo21 (DE3)

BRDT-BD1 [5] = biological target: BRDT-BD1
BRD4-BD1 [6] = biological target: T2, BRD4-BD1 (Homo sapiens, UniProt O60885); assay: AlphaScreen competition assay with biotinylated JQ1, BRD4-BD1; assay type: binding; conditions: AlphaScreen, biotinylated JQ1 as ligand; NE: no effect at 20 µM
T2 construct: amino acid 44− 168; made in house; host or cells: E. coli NiCo21 (DE3)

BRD3-BD2 [7] = biological target: T3, BRD3-BD2 (Homo sapiens, UniProt Q15059); assay: BROMOscan BromoKdELECT competition binding, BRD3-BD2; conditions: BromoKdELECT dose-response; read-out: Binding Constants (Kd), nM BRD3-BD2
T3 construct: purchased Eurofins DiscoverX Corp
T3 sequence (Q15059 306-415 limits assumed): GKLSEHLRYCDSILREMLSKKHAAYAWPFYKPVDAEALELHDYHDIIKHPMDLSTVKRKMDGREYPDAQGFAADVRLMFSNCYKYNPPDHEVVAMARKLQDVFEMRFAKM

BRDT-BD2 [8] = biological target: T4, BRDT-BD2 (Homo sapiens, UniProt Q58F21); assay: BROMOscan BromoKdELECT competition binding, BRDT-BD2; parameters: purchased Eurofins DiscoverX Corp
BRDT-BD2 [9] = biological target: T4, BRDT-BD2; assay: AlphaScreen competition assay with biotinylated JQ1, BRDT-BD2; assay type: binding; parameters: BRDT-BD2, NP_001717.3 amino acid 269− 380; made in house; host or cells: E. coli NiCo21 (DE3); conditions: for BRDT-BD2 vs. BRD4-BD2: ratio of AlphaScreen IC50 values
BRD4-BD2 [10] = biological target: T5, BRD4-BD2 (Homo sapiens, UniProt O60885); assay: BROMOscan BromoKdELECT competition binding, BRD4-BD2; parameters: purchased Eurofins DiscoverX Corp; conditions: BromoKdELECT dose-response; read-out: Binding Constants (Kd), nM BRD4-BD2
BRDT-BD2 [11] = biological target: BRDT-BD2; remark: listed apart in the source
BRD2-BD2 [12] = biological target: T6, BRD2-BD2 (Homo sapiens, UniProt P25440); assay: BROMOscan BromoKdELECT competition binding, BRD2-BD2; conditions: BromoKdELECT dose-response; read-out: Binding Constants (Kd), nM BRD2-BD2
T6 construct: purchased Eurofins DiscoverX Corp
T6 sequence (P25440 344-453 limits assumed): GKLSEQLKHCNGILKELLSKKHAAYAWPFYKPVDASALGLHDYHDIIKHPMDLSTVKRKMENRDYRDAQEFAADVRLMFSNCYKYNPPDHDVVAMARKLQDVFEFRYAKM

BRD4-BD2 [13] = biological target: T5, BRD4-BD2; assay: AlphaScreen competition assay with biotinylated JQ1, BRD4-BD2; assay type: binding; parameters: BD2, NP_055114.1 amino acid 333− 460; made in house; host or cells: E. coli NiCo21 (DE3)
BRD3-BD2 [14] = biological target: BRD3-BD2
BRD4-BD2 [15] = biological target: BRD4-BD2
BRD4-BD1 [16] = biological target: BRD4-BD1
BRD4-BD2 [17] = biological target: BRD4-BD2; remark: listed apart in the source
BRD2-BD2 [18] = biological target: BRD2-BD2
BD2 = system: BD2; parameters: method as in PMID 32193360; conditions: BD2-specific inhibitor; cited from earlier work
BRD4-BD2 [19] = system: BRD4-BD2; remark: listed apart in the source
BRD4-BD1 [20] = system: BRD4-BD1; remark: listed apart in the source
[21] = mice; cited from earlier work
BRDT-BD1 [22] = system: BRDT-BD1; remark: listed apart in the source
BRDT-BD2 [23] = system: BRDT-BD2; remark: listed apart in the source
[24] = mouse liver microsomes, 2.0 μM, 37 °C, data >60 min are an extrapolated estimate
[25] = human liver microsomes, 2.0 μM, 37 °C, data >60 min are an extrapolated estimate
[26] = AlphaScreen, biotinylated JQ1 as ligand

Structure (SMILES): CNC(=O)c1ccc(C(=O)Nc2cc(NC(=O)c3ccc4c(c3)c(-c3ccc(N)cc3C)nn4C)ccc2C)cc1 [Compound 9]
- half-life at 2 μM [1, 24]: 1.53 h
- mouse microsomal stability ([1]; result in words): greater stability in mouse liver microsomes (MLMs) over other hits
- half-life at 2 μM [2, 25]: 2.5 h
- human microsomal stability ([2]; result in words): high metabolic stability
- BROMOscan bromodomain profile (various bromodomains): very weak binding to two bromodomains outside of the BET subfamily

Structure (SMILES): CC(=O)Nc1cc(NC(=O)c2ccc3c(c2)c(-c2ccc(N)cc2C)nn3C)ccc1C [Compound 20]
- Kd (BRDT-BD2 [3]): 1.3 nM
- IC50 (BRDT-BD1 [4]): 15800 nM
- t1/2, min MLM [1, 24]: 1.2 h
- IC50 (BRDT-BD1 [5]): > 10000 nM and 15800 nM
- IC50 (BRD4-BD1 [6]): 10400 nM
- t1/2, min HLM [2, 25]: 6.17 h
- Kd (BRD3-BD2 [7]): 2 nM
- more potent than JQ1 at binding BRDT-BD2 (BRDT-BD2 [8]; BromoKdELECT dose-response curves): more than 20 fold
- Kd (BRDT-BD2 [8]; BromoKdELECT dose-response, read-out: Binding Constants (Kd), nM BRDT-BD2): 1.3 nM
- BRDT-BD2 vs. BRDT-BD1 (BRDT-BD2 selectivity) (BRDT-BD2 [9]): 2,000
- IC50 (BRDT-BD2 [9]; [26]): 8 nM
- BRDT-BD2 activity / affinity (BRDT-BD2 [9]; AlphaScreen, result in words): no loss in activity
- BRDT-BD2 vs. BRD4-BD2 (BRDT-BD2 [9]): 1.5
- Kd (BRD4-BD2 [10]): 1.6 nM
- IC50 (BRDT-BD2 [11]): 8 nM
- Kd (BRD2-BD2 [12]): 7.8 nM
- BRD4-BD2 vs. BRD4-BD1 (BRD4-BD2 selectivity) (BRD4-BD2 [13]): 860
- IC50 (BRD4-BD2 [13]; [26]): 12 nM
- Kd (BRD3-BD2 [14]): 2 nM
- IC50 (BRD4-BD2 [15]): 12 nM
- IC50 (BRD4-BD1 [16]): 10400 nM
- Kd (BRD4-BD2 [17]): 1.6 nM
- Kd (BRD2-BD2 [18]): 7.8 nM
- BROMOscan bromodomain profile (various bromodomains): potent and selective binding to only the second bromodomains within the BET subfamily

Structure (SMILES): CC(=O)Nc1c(F)cc(C(=O)N[C@H]2CC[C@H](O)CC2)cc1O[C@@H](C)c1ccccc1 [GSK046]
- selectivity over BD1 (BD2): > 300 fold

Structure (SMILES): Cc1sc2c(c1C)C(c1ccc(Cl)cc1)=N[C@@H](CC(=O)OC(C)(C)C)c1nnc(C)n1-2 [JQ1, reference compound]
- half-life at 2 μM [1, 24]: 0.25 h
- half-life at 2 μM [2, 25]: 0.1 h
- BRDT-BD2 vs. BRD4-BD2 (BRDT-BD2 [9]): 0.4
- ΔTm at 25 µM (BRD4-BD2 [19]): 7.43 °C
- ΔTm at 25 µM (BRD4-BD1 [20]): 7.84 °C
- bioavailable across the blood-testis boundary [21]: 100%
- ΔTm at 25 µM (BRDT-BD1 [22]): 3.48 °C
- ΔTm at 25 µM (BRDT-BD2 [23]): 10.3 °C
